# Calls of active or inactive are those of the source. The rule behind the calls is not given here.
# Assays:
# [1] = system: Klebsiella pneumoniae; assay: Antibacterial activity against non-gentamicin-resistant Klebsiella pneumoniae clinical isolate after 18 hrs by agar dilution method; assay type: functional
# [2] = system: Enterobacter cloacae; assay: Antibacterial activity against non-gentamicin-resistant Enterobacter cloacae clinical isolate after 18 hrs by agar dilution method; assay type: functional
# [3] = system: Klebsiella aerogenes; assay: Antibacterial activity against non-gentamicin-resistant Enterobacter aerogenes clinical isolate after 18 hrs by agar dilution method; assay type: functional
# [4] = system: Proteus mirabilis; assay: Antibacterial activity against non-gentamicin-resistant Proteus mirabilis clinical isolate after 18 hrs by agar dilution method; assay type: functional
# [5] = system: Morganella morganii; assay: Antibacterial activity against non-gentamicin-resistant Morganella morganii clinical isolate after 18 hrs by agar dilution method; assay type: functional
# [6] = system: Citrobacter freundii; assay: Antibacterial activity against non-gentamicin-resistant Citrobacter freundii clinical isolate after 18 hrs by agar dilution method; assay type: functional
# [7] = system: Providencia rettgeri; assay: Antibacterial activity against non-gentamicin-resistant Proteus rettgeri clinical isolate after 18 hrs by agar dilution method; assay type: functional
# [8] = system: Pseudomonas aeruginosa; assay: Antibacterial activity against non-gentamicin-resistant Pseudomonas aeruginosa clinical isolate after 18 hrs by agar dilution method; assay type: functional
# [9] = system: Pseudomonas sp.; assay: Antibacterial activity against non-gentamicin-resistant Pseudomonas spp. clinical isolate after 18 hrs by agar dilution method; assay type: functional
# [10] = system: Haemophilus parainfluenzae; assay: Antibacterial activity against non-gentamicin-resistant Haemophilus parainfluenzae clinical isolate after 18 hrs by agar dilution method; assay type: functional
# [11] = system: Staphylococcus aureus; assay: Antibacterial activity against non-gentamicin-resistant Staphylococcus aureus clinical isolate after 18 hrs by agar dilution method; assay type: functional
# [12] = system: Staphylococcus epidermidis; assay: Antibacterial activity against non-gentamicin-resistant Staphylococcus epidermidis clinical isolate after 18 hrs by agar dilution method; assay type: functional
# [13] = system: Escherichia coli; assay: Antibacterial activity against non-gentamicin-resistant Escherichia coli clinical isolate assessed as susceptible isolates after 18 hrs by agar dilution method; assay type: functional
# [14] = system: Klebsiella pneumoniae; assay: Antibacterial activity against non-gentamicin-resistant Klebsiella pneumoniae clinical isolate assessed as susceptible isolates after 18 hrs by agar dilution method; assay type: functional
# [15] = system: Enterobacter cloacae; assay: Antibacterial activity against non-gentamicin-resistant Enterobacter cloacae clinical isolate assessed as susceptible isolates after 18 hrs by agar dilution method; assay type: functional
# [16] = system: Klebsiella aerogenes; assay: Antibacterial activity against non-gentamicin-resistant Enterobacter aerogenes clinical isolate assessed as susceptible isolates after 18 hrs by agar dilution method; assay type: functional
# [17] = system: Citrobacter koseri; assay: Antibacterial activity against non-gentamicin-resistant Citrobacter diversus clinical isolate assessed as susceptible isolates after 18 hrs by agar dilution method; assay type: functional
# [18] = system: Proteus mirabilis; assay: Antibacterial activity against non-gentamicin-resistant Proteus mirabilis clinical isolate assessed as susceptible isolates after 18 hrs by agar dilution method; assay type: functional
# [19] = system: Serratia marcescens; assay: Antibacterial activity against non-gentamicin-resistant Serratia marcescens clinical isolate assessed as susceptible isolates after 18 hrs by agar dilution method; assay type: functional
# [20] = system: Providencia rettgeri; assay: Antibacterial activity against non-gentamicin-resistant Proteus rettgeri clinical isolate assessed as susceptible isolates after 18 hrs by agar dilution method; assay type: functional
# [21] = system: Acinetobacter calcoaceticus; assay: Antibacterial activity against non-gentamicin-resistant Acinetobacter calcoaceticus clinical isolate assessed as susceptible isolates after 18 hrs by agar dilution method; assay type: functional
# [22] = system: Pseudomonas aeruginosa; assay: Antibacterial activity against non-gentamicin-resistant Pseudomonas aeruginosa clinical isolate assessed as susceptible isolates after 18 hrs by agar dilution method; assay type: functional
# [23] = system: Haemophilus influenzae; assay: Antibacterial activity against non-gentamicin-resistant Haemophilus influenzae clinical isolate assessed as susceptible isolates after 18 hrs by agar dilution method; assay type: functional, organism-based
# [24] = system: Staphylococcus aureus; assay: Antibacterial activity against non-gentamicin-resistant Staphylococcus aureus clinical isolate assessed as susceptible isolates after 18 hrs by agar dilution method; assay type: functional
# [25] = system: Staphylococcus epidermidis; assay: Antibacterial activity against non-gentamicin-resistant Staphylococcus epidermidis clinical isolate assessed as susceptible isolates after 18 hrs by agar dilution method; assay type: functional
# [26] = system: Escherichia coli; assay: Antibacterial activity against gentamicin-resistant Escherichia coli clinical isolate after 18 hrs by agar dilution method; assay type: functional
# [27] = system: Klebsiella pneumoniae; assay: Antibacterial activity against gentamicin-resistant Klebsiella pneumoniae clinical isolate after 18 hrs by agar dilution method; assay type: functional
# [28] = system: Enterobacter cloacae; assay: Antibacterial activity against gentamicin-resistant Enterobacter cloacae clinical isolate after 18 hrs by agar dilution method; assay type: functional
# [29] = system: Klebsiella aerogenes; assay: Antibacterial activity against gentamicin-resistant Enterobacter aerogenes clinical isolate after 18 hrs by agar dilution method; assay type: functional
# [30] = system: Citrobacter koseri; assay: Antibacterial activity against gentamicin-resistant Citrobacter diversus clinical isolate after 18 hrs by agar dilution method; assay type: functional
# [31] = system: Morganella morganii; assay: Antibacterial activity against gentamicin-resistant Morganella morganii clinical isolate after 18 hrs by agar dilution method; assay type: functional
# [32] = system: Providencia rettgeri; assay: Antibacterial activity against gentamicin-resistant Proteus rettgeri clinical isolate after 18 hrs by agar dilution method; assay type: functional
# [33] = system: Acinetobacter calcoaceticus; assay: Antibacterial activity against gentamicin-resistant Acinetobacter calcoaceticus clinical isolate after 18 hrs by agar dilution method; assay type: functional
# [34] = system: Pseudomonas aeruginosa; assay: Antibacterial activity against gentamicin-resistant Pseudomonas aeruginosa clinical isolate after 18 hrs by agar dilution method; assay type: functional
# [35] = system: Pseudomonas sp.; assay: Antibacterial activity against gentamicin-resistant Pseudomonas spp. clinical isolate after 18 hrs by agar dilution method; assay type: functional
# [36] = system: Staphylococcus aureus; assay: Antibacterial activity against gentamicin-resistant Staphylococcus aureus clinical isolate after 18 hrs by agar dilution method; assay type: functional
# [37] = system: Enterococcus faecalis; assay: Antibacterial activity against gentamicin-resistant Enterococcus faecalis clinical isolate after 18 hrs by agar dilution method; assay type: functional
# [38] = system: Klebsiella pneumoniae; assay: Antibacterial activity against gentamicin-resistant Klebsiella pneumoniae clinical isolate assessed as susceptible isolates after 18 hrs by agar dilution method; assay type: functional
# [39] = system: Citrobacter koseri; assay: Antibacterial activity against gentamicin-resistant Citrobacter diversus clinical isolate assessed as susceptible isolates after 18 hrs by agar dilution method; assay type: functional
# [40] = system: Morganella morganii; assay: Antibacterial activity against gentamicin-resistant Morganella morganii clinical isolate assessed as susceptible isolates after 18 hrs by agar dilution method; assay type: functional
# [41] = system: Providencia rettgeri; assay: Antibacterial activity against gentamicin-resistant Proteus rettgeri clinical isolate assessed as susceptible isolates after 18 hrs by agar dilution method; assay type: functional
# [42] = system: Pseudomonas aeruginosa; assay: Antibacterial activity against gentamicin-resistant Pseudomonas aeruginosa clinical isolate assessed as susceptible isolates after 18 hrs by agar dilution method; assay type: functional
# [43] = system: Staphylococcus aureus; assay: Antibacterial activity against gentamicin-resistant Staphylococcus aureus clinical isolate assessed as susceptible isolates after 18 hrs by agar dilution method; assay type: functional
# [44] = system: Staphylococcus epidermidis; assay: Antibacterial activity against gentamicin-resistant Staphylococcus epidermidis clinical isolate assessed as susceptible isolates after 18 hrs by agar dilution method; assay type: functional
# [45] = system: Enterococcus faecalis; assay: Antibacterial activity against gentamicin-resistant Enterococcus faecalis clinical isolate assessed as susceptible isolates after 18 hrs by agar dilution method; assay type: functional, organism-based
# [46] = system: Escherichia coli BL21(DE3); assay: Acetylation activity of AAC(6')-APH(2'') in Escherichia coli BL21(DE3) assessed as production of free pyridine-4-thiolate
smiles,measurement,setting,value
CN[C@@H]1[C@@H](O)[C@@H](O[C@@H]2[C@@H](O)[C@H](O[C@@H]3OC(C(C)N)=CC[C@@H]3N)[C@@H](N)C[C@H]2N)OC[C@]1(C)O (stereo partly specified) [VERDAMICIN],MIC50,[1],0.25 µg/mL
same,MIC90,[1],0.5 µg/mL
same,MIC,[2],0.25 µg/mL
same,MIC50,[2],0.25 µg/mL
same,MIC90,[2],0.5 µg/mL
same,MIC50,[3],0.5 µg/mL
same,MIC90,[3],1 µg/mL
same,MIC50,[4],1 µg/mL
same,MIC90,[4],2 µg/mL
same,MIC50,[5],1 µg/mL
same,MIC90,[5],2 µg/mL
same,MIC50,[6],0.5 µg/mL
same,MIC90,[6],64 µg/mL
same,MIC50,[7],2 µg/mL
same,MIC90,[7],8 µg/mL
same,MIC50,[8],8 µg/mL
same,MIC90,[8],16 µg/mL
same,MIC50,[9],2 µg/mL
same,MIC90,[9],8 µg/mL
same,MIC50,[10],1 µg/mL
same,MIC90,[10],2 µg/mL
same,MIC50,[11],0.125 µg/mL
same,MIC90,[11],8 µg/mL
same,MIC50,[12],0.5 µg/mL
same,MIC90,[12],32 µg/mL
same,Activity,[13],98.1%
same,Activity,[14],98.8%
same,Activity,[15],98.2%
same,Activity,[16],98.1%
same,Activity,[17],100%
same,Activity,[18],100%
same,Activity,[19],96.3%
same,Activity,[20],100%
same,Activity,[21],98%
same,Activity,[22],86.9%
same,Activity,[23],inactive
same,Activity,[24],94.8%
same,Activity,[25],75%
same,MIC50,[26],32 µg/mL
same,MIC90,[26],128 µg/mL
same,MIC50,[27],128 µg/mL
same,MIC90,[27],> 128 µg/mL
same,MIC50,[28],128 µg/mL
same,MIC90,[28],> 128 µg/mL
same,MIC50,[29],> 128 µg/mL
same,MIC90,[29],> 128 µg/mL
same,MIC50,[30],> 128 µg/mL
same,MIC90,[30],> 128 µg/mL
same,MIC50,[31],64 µg/mL
same,MIC90,[31],128 µg/mL
same,MIC50,[32],32 µg/mL
same,MIC90,[32],128 µg/mL
same,MIC50,[33],> 128 µg/mL
same,MIC90,[33],> 128 µg/mL
same,MIC50,[34],> 128 µg/mL
same,MIC90,[34],> 128 µg/mL
same,MIC50,[35],128 µg/mL
same,MIC90,[35],> 128 µg/mL
same,MIC50,[36],32 µg/mL
same,MIC90,[36],> 128 µg/mL
same,MIC50,[37],128 µg/mL
same,MIC90,[37],> 128 µg/mL
same,Activity,[38],10.7%
same,Activity,[39],0%
same,Activity,[40],8.3%
same,Activity,[41],20%
same,Activity,[42],2.9%
same,Activity,[43],5.6%
same,Activity,[44],50%
same,Activity,[45],inactive
same,Km,[46],656 µM
CCN[C@@H]1C[C@H](N)[C@@H](O[C@@H]2OC(C(C)N)=CC[C@@H]2N)[C@H](O)[C@H]1O[C@H]1OC[C@](C)(O)[C@H](NC)[C@H]1O (stereo partly specified) [VERTILMICIN],MIC50,[1],0.25 µg/mL
same,MIC90,[1],0.5 µg/mL
same,MIC50,[2],0.25 µg/mL
same,MIC90,[2],0.5 µg/mL
same,MIC50,[3],0.5 µg/mL
same,MIC90,[3],2 µg/mL
same,MIC50,[4],1 µg/mL
same,MIC90,[4],2 µg/mL
same,MIC50,[5],1 µg/mL
same,MIC90,[5],2 µg/mL
same,MIC50,[6],0.5 µg/mL
same,MIC90,[6],8 µg/mL
same,MIC50,[7],2 µg/mL
same,MIC90,[7],8 µg/mL
same,MIC50,[8],8 µg/mL
same,MIC90,[8],32 µg/mL
same,MIC50,[9],8 µg/mL
same,MIC90,[9],16 µg/mL
same,MIC50,[10],1 µg/mL
same,MIC90,[10],2 µg/mL
same,MIC50,[11],0.125 µg/mL
same,MIC90,[11],2 µg/mL
same,MIC50,[12],0.125 µg/mL
same,MIC90,[12],1 µg/mL
same,Activity,[13],100%
same,Activity,[14],97.6%
same,Activity,[15],100%
same,Activity,[16],98.1%
same,Activity,[17],100%
same,Activity,[18],98.4%
same,Activity,[19],100%
same,Activity,[20],92.3%
same,Activity,[21],93.8%
same,Activity,[22],78.7%
same,Activity,[23],inactive
same,Activity,[24],94.8%
same,Activity,[25],100%
same,MIC50,[26],8 µg/mL
same,MIC90,[26],64 µg/mL
same,MIC50,[27],16 µg/mL
same,MIC90,[27],> 128 µg/mL
same,MIC50,[28],32 µg/mL
same,MIC90,[28],> 128 µg/mL
same,MIC50,[29],16 µg/mL
same,MIC90,[29],> 128 µg/mL
same,MIC50,[30],32 µg/mL
same,MIC90,[30],> 128 µg/mL
same,MIC50,[31],8 µg/mL
same,MIC90,[31],32 µg/mL
same,MIC50,[32],8 µg/mL
same,MIC90,[32],64 µg/mL
same,MIC50,[33],128 µg/mL
same,MIC90,[33],> 128 µg/mL
same,MIC50,[34],32 µg/mL
same,MIC90,[34],> 128 µg/mL
same,MIC50,[35],128 µg/mL
same,MIC90,[35],> 128 µg/mL
same,MIC50,[36],4 µg/mL
same,MIC90,[36],16 µg/mL
same,MIC50,[37],4 µg/mL
same,MIC90,[37],> 128 µg/mL
same,Activity,[38],32.1%
same,Activity,[39],7.1%
same,Activity,[40],50%
same,Activity,[41],53.3%
same,Activity,[42],17.6%
same,Activity,[43],83.3%
same,Activity,[44],88.5%
same,Activity,[45],inactive
same,Km,[46],469 µM
